In patent US10463670B2, “Use of non-peptide NK1 antagonists in a predetermined dose for the treatment of cancer” (SERVICIO ANDALUZ DE SALUD, priority 2013, dated 2019):
“Also recorded” adds a separate entry of the source.

Legend:
[1] = system: Human fibrosarcoma HT-1080; experiment: MTS cell proliferation, nanomolar antagonist, HT-1080; format: cell-based; settings: Aprepitant 1, 5 and 7 nM, vs cells grown in the absence of antagonist, time dependant
Method: Cell cultures of various commercial tumour cell lines stated in table 13 were used. [table] […] The number of cells was quantified using a Coulter counter. […] The culture plates were grown in the presence of increasing concentrations of non-peptide NK1 receptor antagonists. To obtain the staining in the proliferation assays, 20 μl of MTS were added to each one of the wells of the cell culture plates 90 minutes before reading the samples in a multiscan spectrophotometer (TECAN Spectra classic, Barcelona, Spain) at 492 nm (assay wavelength) and 690 nm (reference wavelength). The different doses were tested in duplicate and each experiment was performed in triplicate. The antagonist Aprepitant was used at the following concentrations: 1 nanomolar -nM-, 5 nanomolar -nM- and 7 nanomolar -nM-. […] As proliferation control, the cells were grown in the absence of said antagonist. This is expressed in FIGS. 1 to 10.

[2] = system: brain tumours; settings: Aprepitant 3 mg per kilogram of weight and day; mice; Lewis et al. 2013; cited from earlier work
[3] = system: human lung cancer, reference HCC-44; experiment: Lung cancer HCC-44 tumours implanted s.c. in nude mice, Aprepitant alone; format: in vivo
Method: (§1) Immunocompromised female mice, 5-6 weeks of age were used, nu/nu Balb/c nude mice, provided by Harlan Iberica Barcelona (Spain). They were kept at 24° C. and in sterile conditions with food and water “ad libitum”. They were injected with 2×10^7 tumour cells, corresponding to cancer (human lung cancer, reference HCC-44 supplied by DSMZ) in 200 μl of PBS subcutaneous route. The tumour size was measured and the mice were evaluated for their state of health and weight daily. The mice were randomized in nine groups when the tumours reached a volume of 75 mm^3. One of the groups was treated with 200 μl of placebo (control group) and the eight remaining groups with doses of 10 (group 1), 20 (group 2), 30 (group 3), 40 (group 4), 50 (group 5), 60 (group 6), 70 (group 7) and 80 (group 8) mg per kilogram of weight and day of the NK1 receptor antagonist Aprepitant. 3 animals were treated per group, during 28 days. All the mice were sacrificed at the end of the experiment.

[4] = system: human fibrosarcoma; reference HT-1080; experiment: Fibrosarcoma HT-1080 tumours implanted s.c. in nude mice, Aprepitant alone; format: in vivo
Method: as §1
Immunocompromised female mice, 5-6 weeks of age were used, in the same conditions as explained in example 1. They were injected with 2×10^7 tumour cells, corresponding to a mesenchymal cell line tumour (human fibrosarcoma; reference HT-1080; supplied by DSMZ) in 200 μl of PBS by subcutaneous route. The tumour size was measured and the mice were evaluated for their state of health and weight daily. The mice were randomized in nine groups when the tumours reached a volume of 75 mm^3. One of the groups was treated with 200 μl of placebo (control group) and the eight remaining groups with doses of 10 (group 1), 20 (group 2), 30 (group 3), 40 (group 4), 50 (group 5), 60 (group 6), 70 (group 7) and 80 (group 8) mg per kilogram of weight and day of the NK1 receptor antagonist Aprepitant. 3 animals were treated per group, during 28 days. All the mice were sacrificed at the end of the experiment.

[5] = Aprepitant 10 mg/kg/day, 7 days
[6] = Aprepitant 10 mg/kg/day, 14 days
[7] = Aprepitant 10 mg/kg/day, 21 days
[8] = Aprepitant 10 mg/kg/day, 28 days
[9] = Aprepitant 20 mg/kg/day, 7 days
[10] = Aprepitant 20 mg/kg/day, 14 days
[11] = Aprepitant 20 mg/kg/day, 21 days
[12] = Aprepitant 20 mg/kg/day, 28 days
[13] = Aprepitant 30 mg/kg/day, 7 days
[14] = Aprepitant 30 mg/kg/day, 14 days
[15] = Aprepitant 30 mg/kg/day, 21 days
[16] = Aprepitant 30 mg/kg/day, 28 days
[17] = Aprepitant 40 mg/kg/day, 7 days
[18] = Aprepitant 40 mg/kg/day, 14 days
[19] = Aprepitant 40 mg/kg/day, 21 days
[20] = Aprepitant 40 mg/kg/day, 28 days
[21] = Aprepitant 50 mg/kg/day, 7 days
[22] = Aprepitant 50 mg/kg/day, 14 days
[23] = Aprepitant 50 mg/kg/day, 21 days
[24] = Aprepitant 50 mg/kg/day, 28 days
[25] = Aprepitant 60 mg/kg/day, 7 days
[26] = Aprepitant 60 mg/kg/day, 14 days
[27] = Aprepitant 60 mg/kg/day, 21 days
[28] = Aprepitant 60 mg/kg/day, 28 days
[29] = Aprepitant 70 mg/kg/day, 7 days
[30] = Aprepitant 70 mg/kg/day, 14 days
[31] = Aprepitant 70 mg/kg/day, 21 days
[32] = Aprepitant 70 mg/kg/day, 28 days
[33] = Aprepitant 80 mg/kg/day, 7 days
[34] = Aprepitant 80 mg/kg/day, 14 days
[35] = Aprepitant 80 mg/kg/day, 21 days
[36] = Aprepitant 80 mg/kg/day, 28 days

C[C@@H](O[C@H]1OCCN(Cc2n[nH]c(=O)[nH]2)[C@H]1c1ccc(F)cc1)c1cc(C(F)(F)F)cc(C(F)(F)F)c1 [Aprepitant]
Proliferation of tumour cells (MTS) [1]: increase was observed of proliferation
Reduction in brain tumour size [2]: does not cause a reduction in brain tumour sizes; also recorded: does not produce reduction in the size of brain tumours
Tumour size (mean volume of the tumour) [3, 5]: 210 ± 2 cubic millimeters
Tumour size (mean volume of the tumour) [3, 6]: 190 ± 4 cubic millimeters
Tumour size (mean volume of the tumour) [3, 7]: 165 ± 6 cubic millimeters
Tumour size (mean volume of the tumour) [3, 8]: 135 ± 3 cubic millimeters
Tumour size (mean volume of the tumour) [3, 9]: 205 ± 8 cubic millimeters
Tumour size (mean volume of the tumour) [3, 10]: 170 ± 3 cubic millimeters
Tumour size (mean volume of the tumour) [3, 11]: 145 ± 4 cubic millimeters
Tumour size (mean volume of the tumour) [3, 12]: 110 ± 4 cubic millimeters
Tumour size (mean volume of the tumour) [3, 13]: 185 ± 4 cubic millimeters
Tumour size (mean volume of the tumour) [3, 14]: 150 ± 6 cubic millimeters
Tumour size (mean volume of the tumour) [3, 15]: 135 ± 5 cubic millimeters
Tumour size (mean volume of the tumour) [3, 16]: 105 ± 2 cubic millimeters
Tumour size (mean volume of the tumour) [3, 17]: 155 ± 5 cubic millimeters
Tumour size (mean volume of the tumour) [3, 18]: 130 ± 4 cubic millimeters
Tumour size (mean volume of the tumour) [3, 19]: 120 ± 4 cubic millimeters
Tumour size (mean volume of the tumour) [3, 20]: 95 ± 4 cubic millimeters
Tumour size (mean volume of the tumour) [3, 21]: 130 ± 4 cubic millimeters
Tumour size (mean volume of the tumour) [3, 22]: 115 ± 7 cubic millimeters
Tumour size (mean volume of the tumour) [3, 23]: 105 ± 6 cubic millimeters
Tumour size (mean volume of the tumour) [3, 24]: 85 ± 6 cubic millimeters
Tumour size (mean volume of the tumour) [3, 25]: 110 ± 3 cubic millimeters
Tumour size (mean volume of the tumour) [3, 26]: 95 ± 8 cubic millimeters
Tumour size (mean volume of the tumour) [3, 27]: 80 ± 7 cubic millimeters
Tumour size (mean volume of the tumour) [3, 28]: 65 ± 4 cubic millimeters
Tumour size (mean volume of the tumour) [3, 29]: 95 ± 4 cubic millimeters
Tumour size (mean volume of the tumour) [3, 30]: 80 ± 6 cubic millimeters
Tumour size (mean volume of the tumour) [3, 31]: 65 ± 8 cubic millimeters
Tumour size (mean volume of the tumour) [3, 32]: 40 ± 7 cubic millimeters
Tumour size (mean volume of the tumour) [3, 33]: 70 ± 4 cubic millimeters
Tumour size (mean volume of the tumour) [3, 34]: 55 ± 7 cubic millimeters
Tumour size (mean volume of the tumour) [3, 35]: 40 ± 6 cubic millimeters
Tumour size (mean volume of the tumour) [3, 36]: 25 ± 5 cubic millimeters
Tumour size (mean volume of the tumour) [4, 5]: 220 ± 4 cubic millimeters
Tumour size (mean volume of the tumour) [4, 6]: 205 ± 4 cubic millimeters
Tumour size (mean volume of the tumour) [4, 7]: 195 ± 6 cubic millimeters
Tumour size (mean volume of the tumour) [4, 8]: 170 ± 6 cubic millimeters
Tumour size (mean volume of the tumour) [4, 9]: 195 ± 5 cubic millimeters
Tumour size (mean volume of the tumour) [4, 10]: 180 ± 5 cubic millimeters
Tumour size (mean volume of the tumour) [4, 11]: 165 ± 7 cubic millimeters
Tumour size (mean volume of the tumour) [4, 12]: 150 ± 7 cubic millimeters
Tumour size (mean volume of the tumour) [4, 13]: 175 ± 5 cubic millimeters
Tumour size (mean volume of the tumour) [4, 14]: 155 ± 6 cubic millimeters
Tumour size (mean volume of the tumour) [4, 15]: 135 ± 5 cubic millimeters
Tumour size (mean volume of the tumour) [4, 16]: 140 ± 4 cubic millimeters
Tumour size (mean volume of the tumour) [4, 17]: 160 ± 4 cubic millimeters
Tumour size (mean volume of the tumour) [4, 18]: 150 ± 3 cubic millimeters
Tumour size (mean volume of the tumour) [4, 19]: 120 ± 5 cubic millimeters
Tumour size (mean volume of the tumour) [4, 20]: 110 ± 6 cubic millimeters
Tumour size (mean volume of the tumour) [4, 21]: 145 ± 5 cubic millimeters
Tumour size (mean volume of the tumour) [4, 22]: 135 ± 7 cubic millimeters
Tumour size (mean volume of the tumour) [4, 23]: 100 ± 3 cubic millimeters
Tumour size (mean volume of the tumour) [4, 24]: 100 ± 7 cubic millimeters
Tumour size (mean volume of the tumour) [4, 25]: 135 ± 7 cubic millimeters
Tumour size (mean volume of the tumour) [4, 26]: 120 ± 6 cubic millimeters
Tumour size (mean volume of the tumour) [4, 27]: 90 ± 8 cubic millimeters
Tumour size (mean volume of the tumour) [4, 28]: 85 ± 4 cubic millimeters
Tumour size (mean volume of the tumour) [4, 29]: 120 ± 8 cubic millimeters
Tumour size (mean volume of the tumour) [4, 30]: 100 ± 4 cubic millimeters
Tumour size (mean volume of the tumour) [4, 31]: 85 ± 6 cubic millimeters
Tumour size (mean volume of the tumour) [4, 32]: 80 ± 7 cubic millimeters
Tumour size (mean volume of the tumour) [4, 33]: 100 ± 4 cubic millimeters
Tumour size (mean volume of the tumour) [4, 34]: 90 ± 8 cubic millimeters
Tumour size (mean volume of the tumour) [4, 35]: 70 ± 8 cubic millimeters
Tumour size (mean volume of the tumour) [4, 36]: 65 ± 9 cubic millimeters
